The text below walks through data of US20040214721A1 (priority 2001, published 2004).

The term melting point denotes the temperature of the solid-liquid transition. Take `CCOc1ccc(-c2ccccc2NC(=O)[C@@H](NS(C)(=O)=O)C(C)C)cc1OC`: the melting point lay within 95 to 98 °C.

As to `COc1ccc(-c2ccccc2NC(=O)[C@@H](NS(C)(=O)=O)C(C)C)cc1OC`, the melting point was 68 to 70 °C.

On to `COc1ccc(-c2ccccc2NC(=O)CNS(C)(=O)=O)cc1OC`, for which the melting point fell in the range of 158 to 160 °C.

The compound `CCC#CCOc1ccc([C@@H]2CCCC[C@H]2NC(=O)[C@@H](NS(=O)(=O)CC)C(C)C)cc1OC` had a melting point of 133 to 136 °C.

`CCC#CCOc1ccc([C@@H]2CCCC[C@H]2NC(=O)[C@@H](NS(=O)(=O)N(C)C)C(C)C)cc1OC` registered a melting point of 158 to 160 °C.

`C#CCOc1ccc([C@@H]2CCCC[C@H]2NC(=O)[C@@H](NS(C)(=O)=O)C(C)C)cc1OC` registered a melting point of 183 to 185 °C.

For the compound `CCC#CCOc1ccc([C@@H]2CCCC[C@H]2NC(=O)[C@@H](NS(C)(=O)=O)C(C)C)cc1OC`, the melting point was 166 to 168 °C.

Compound `C#CCOc1ccc([C@@H]2CCCC[C@H]2NC(=O)[C@@H](NS(=O)(=O)CC)C(C)C)cc1OC` returned a melting point of 149 to 151 °C.
